Experimental data: patent US7368576B2, “Dipeptidyl peptidase IV inhibitors and their uses as anti-cancer agents” (Probiodrug AG, priority 2001, dated 2008)
pEC50, pIC50, pKi: −log10 of the molar value. Entries after “also recorded” stand apart in the source; their conditions may differ. Where two headings read alike, the source gives them in different places. Square brackets hold non-standard residues; d marks the D form. Peptide text beside a SMILES is read from it. pY = N[C@@H](Cc1ccc(OP(=O)(O)O)cc1)C(=O)O; Hyp = O=C(O)[C@@H]1C[C@@H](O)CN1; Tic = O=C(O)[C@@H]1Cc2ccccc2CN1; Tle = CC(C)(C)[C@H](N)C(=O)O

Columns and labels:
[1] = molecular target: T1, dipeptidyl peptidase IV from porcine kidney (Sus scrofa, UniProt P22411); assay: Ki determination, DPIV inhibition (glycylprolyl-4-nitroaniline); type: biochemical; details: HEPES pH7.6, 30° C.
T1 construct: dipeptidyl peptidase IV from porcine kidney; from tissue; host or cells: porcine kidney

purified porcine DPIV = purified porcine DPIV (Sus scrofa, UniProt P22411); assay: Determination of IC50 values, DPIV (Gly-Pro-pNA); type: biochemical; details: Gly-Pro-pNA 0.4 mM, HEPES pH7.6, 30° C.
Experimental: 100 μl inhibitor stock solution were mixed with 100 μl buffer (HEPES pH7.6) and 50 μl substrate (Gly-Pro-pNA, final concentration 0.4 mM) and preincubated at 30° C. Reaction was started by addition of 20 μl purified porcine DPIV. Formation of the product pNA was measured at 405 nm over 10 min using the HTS 7000Plus plate reader (Perkin Elmer) and slopes were calculated. The final inhibitor concentrations ranged between 1 mM and 30 nM. For calculation of IC50 GraFit 4.0.13 (Erithacus Software) was used.

plasma DPIV activity = molecular target: T2, plasma DPIV activity (Rattus norvegicus, UniProt P14740); assay: DPIV inhibiting activity after intravasal and oral administration to Wistar rats; type: in vivo; details: 100 mg/kg; for In vivo DPIV-inhibition at tmax, i.v. (%): intra-vasal (intra-arterial); for In vivo DPIV-inhibition at tmax, p.o. (%): oral
T2 construct: determination of plasma DPIV activity consisted of 80 μl reagent and 20 μl plasma sample; from tissue; host or cells: plasma of Wistar rats after i.v. or p.o. dosing
Experimental: Male Wistar rats (Shoe: Wist(Sho)) with a body weight ranging between 250 and 350 g were purchased from Tierzucht Schönwalde (Schönwalde, Germany).
After overnight fasting, 100 μl samples of heparinised arterial blood were collected at −30, −5, and 0 min. […] In the case of oral administration, an additional volume of 1 ml saline was injected into the arterial catheter. In the case of intra-arterial administration, the catheter was immediately flushed with 30 μl saline and an additional 1 ml of saline was given orally via the feeding tube.
All blood samples were collected into ice cooled Eppendorf tubes (Eppendorf-Netheler-Hinz, Hamburg, Germany) filled with 10 μl 1M sodium citrate buffer (pH 3.0) for plasma DPIV activity measurement. Eppendorf tubes were centrifuged immediately (12000 rpm for 2 min, Hettich Zentrifuge EBA 12, Tuttlingen; Germany): The plasma fractions were stored on ice until analysis or were frozen at −20° C. until analysis. All plasma samples were labelled with the following data: • Code number • Animal Number • Date of sampling • Time of sampling Analytical Methods
The assay mixture for determination of plasma DPIV activity consisted of 80 μl reagent and 20 μl plasma sample. […] The DPIV activity was expressed in mU/ml.

PepT1 [2] = molecular target: T3, PepT1 (Oryctolagus cuniculus, UniProt P36836); assay: Inhibition of 3H-D-Phe-Ala binding to PepT1-expressing P. pastoris cells
T3 construct: expressed in transfected cells; host or cells: Pichia pastoris cells expressing PepT1 (per the assay description)
T3 sequence (P36836 1-707): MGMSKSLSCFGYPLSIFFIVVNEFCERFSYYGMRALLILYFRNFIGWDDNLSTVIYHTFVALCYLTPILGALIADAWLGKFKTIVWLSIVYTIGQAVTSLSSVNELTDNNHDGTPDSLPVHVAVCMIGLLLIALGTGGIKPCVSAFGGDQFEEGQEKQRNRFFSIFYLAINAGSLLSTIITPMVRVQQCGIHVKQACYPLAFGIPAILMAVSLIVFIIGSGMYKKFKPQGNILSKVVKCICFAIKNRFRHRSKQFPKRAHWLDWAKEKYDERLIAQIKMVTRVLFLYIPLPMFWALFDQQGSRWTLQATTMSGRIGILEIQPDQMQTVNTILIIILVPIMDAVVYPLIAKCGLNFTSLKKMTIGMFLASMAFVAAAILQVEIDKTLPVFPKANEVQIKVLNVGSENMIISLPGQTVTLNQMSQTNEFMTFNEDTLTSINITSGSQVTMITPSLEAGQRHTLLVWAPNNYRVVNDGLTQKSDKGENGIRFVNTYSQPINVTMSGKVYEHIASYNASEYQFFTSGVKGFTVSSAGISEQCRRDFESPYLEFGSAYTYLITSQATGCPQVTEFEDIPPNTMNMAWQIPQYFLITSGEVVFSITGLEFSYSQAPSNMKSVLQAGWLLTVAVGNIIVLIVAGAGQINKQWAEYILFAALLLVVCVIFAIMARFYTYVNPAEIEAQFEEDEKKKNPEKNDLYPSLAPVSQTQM
Text: (§1) Side chain-modified glutamyl thiazolidines having a structure H-Glu(X)-Thia were synthesised, with polyethylene glycol or glycine oligomers of various chain lengths being used as X (see Method A of example for description of synthesis). The binding characteristics of those derivatives and their transportability by the peptide transporter PepT1 were investigated.

PepT1 [3] = assay: Transport at PepT1-expressing oocytes of X. leavis, two-electrode voltage clamp; type: cell-based
Text: as §1

MADB106 tumor cells = assay: In vivo cancer cell adhesion assay (CFSE labeled cells in lungs); set-up: species or system F344 rats; details: wild-type F344USA rats, single injection i.v. + i.p., 30 min after inoculation, vs. saline; fumarate
Experimental: Cell culture, injection of tumor cells, dissection of the animals and immunohistochemistry were conducted as previously described (von Hörsten et al., 2000). In brief, 1×10^6 MADB106 tumor cells derived from log phase of tumor growth were injected via the lateral tail vein and lungs removed at different time points thereafter. For in situ quantification of tumor cells at early time points after injection (30 min), cells were vital dye stained using the fluorescein derivate 5- (and -6)-carboxyfluorescein diacetate succinimidyl ester (CFSE) before injection.
Control sections were included in which one or both primary antibodies were omitted.
Vital dye (Carboxyfluorescein; CFSE) labeling of MADB106 tumor cells allows the quantification of tumor cells and NK cells in thick sections of lung tissue by stereology in situ (von Hörsten et al, 2000). In the present study we produced thin sections (8 μm) of the same lungs (n=10) and performed additional microscopic counting by image analysis of DE1 positive cells. This was done to further simplify the previously validated stereological quantification technique. Therefore, in the present study, the assessment of DE1 positive tumor cells in lung tissue from different substrains 30 min after tumor inoculation was carried out using image analysis approach. […] Each right upper lobe of the lungs was sectioned at 6 randomly chosen non-adjacent levels. From each level, three sections were evaluated.

Chain of purified porcine DPIV (P22411 whole entry): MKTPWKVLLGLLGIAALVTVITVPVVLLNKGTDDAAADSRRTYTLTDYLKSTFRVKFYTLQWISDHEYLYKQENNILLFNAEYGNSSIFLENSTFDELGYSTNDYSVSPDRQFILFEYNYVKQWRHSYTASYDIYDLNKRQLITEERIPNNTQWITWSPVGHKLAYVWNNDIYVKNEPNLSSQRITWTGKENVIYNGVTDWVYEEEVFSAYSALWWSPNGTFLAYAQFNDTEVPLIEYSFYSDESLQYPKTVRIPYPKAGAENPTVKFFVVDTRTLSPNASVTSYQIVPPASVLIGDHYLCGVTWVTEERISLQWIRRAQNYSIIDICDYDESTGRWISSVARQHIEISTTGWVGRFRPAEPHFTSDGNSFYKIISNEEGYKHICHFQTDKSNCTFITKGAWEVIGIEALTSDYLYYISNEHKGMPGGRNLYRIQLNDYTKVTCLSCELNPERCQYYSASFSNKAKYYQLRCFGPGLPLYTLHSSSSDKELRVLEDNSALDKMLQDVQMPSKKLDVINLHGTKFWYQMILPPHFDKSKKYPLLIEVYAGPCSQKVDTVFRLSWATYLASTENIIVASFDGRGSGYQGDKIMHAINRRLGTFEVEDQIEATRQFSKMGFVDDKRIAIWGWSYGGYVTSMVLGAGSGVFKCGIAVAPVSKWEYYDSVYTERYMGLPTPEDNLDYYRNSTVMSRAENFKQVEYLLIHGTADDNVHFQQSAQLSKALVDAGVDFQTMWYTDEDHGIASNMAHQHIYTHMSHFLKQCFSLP
T1 sequence (P22411 whole entry): as above
T2 sequence (P14740 37-767 limits assumed): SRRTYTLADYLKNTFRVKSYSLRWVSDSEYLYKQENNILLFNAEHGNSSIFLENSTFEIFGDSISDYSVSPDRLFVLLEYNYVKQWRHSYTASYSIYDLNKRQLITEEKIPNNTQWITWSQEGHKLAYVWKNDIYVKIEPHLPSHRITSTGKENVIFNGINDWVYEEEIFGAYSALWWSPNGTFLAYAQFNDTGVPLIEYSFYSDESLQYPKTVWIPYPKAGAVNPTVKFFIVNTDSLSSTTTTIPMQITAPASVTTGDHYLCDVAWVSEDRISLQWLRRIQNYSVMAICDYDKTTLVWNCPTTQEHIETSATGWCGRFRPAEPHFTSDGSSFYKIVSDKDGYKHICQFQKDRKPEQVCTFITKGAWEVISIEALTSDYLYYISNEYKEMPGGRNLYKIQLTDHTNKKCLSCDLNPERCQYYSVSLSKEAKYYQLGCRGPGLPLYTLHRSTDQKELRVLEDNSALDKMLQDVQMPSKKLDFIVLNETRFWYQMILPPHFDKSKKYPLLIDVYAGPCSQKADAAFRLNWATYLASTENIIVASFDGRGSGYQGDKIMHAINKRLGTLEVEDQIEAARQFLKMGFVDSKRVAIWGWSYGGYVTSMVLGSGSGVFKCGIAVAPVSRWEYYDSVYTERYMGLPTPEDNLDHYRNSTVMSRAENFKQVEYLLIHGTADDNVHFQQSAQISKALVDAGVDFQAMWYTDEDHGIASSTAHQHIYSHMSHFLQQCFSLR

Molecule | pKi [1] | pIC50 (purified porcine DPIV) | also measured
CCC(C)C(N)C(=O)N1CC1 (stereo not drawn) [H-Ile-azididine] | 5.51 | – | –
Br.CC(=O)OCC(=O)[C@@H]1CCCN1C(=O)[C@@H](NC(=O)[C@H](C)N)C(C)C [Ala-Val-Pro-acyloxy methyl ketone, H-Ala-Val-Pro-CH2O—C(O)CH3.HBr] | – | – | In vivo DPIV-inhibition at tmax, i.v. (%) (plasma DPIV activity): 89%; In vivo DPIV-inhibition at tmax, p.o. (%) (plasma DPIV activity): 86%
N[C@@H](CCC(=O)O)C(=O)N1CCSC1 [H-Glu-thiazolidine] | 6.21 | – | pEC50 (PepT1 [2]): 2.96; Imax, inward currents generated by the transport (PepT1 [3]): 35 ± 13 nA
CC(C)C(N)C(=O)C1CCCC1 (stereo not drawn) [Val-cyclopentyl ketone] | 4.88 | 4.31 | –
CC(C)[C@H](N)C(=O)N1CCCC1.O=C(O)/C=C/C(=O)O [valyl pyrrolidine fumarate] | – | – | tumor cell adhesion, CFSE positive cells in lung tissue (MADB106 tumor cells): no significant effect; also recorded: significant differences vs. saline treated controls were not found
NC(=O)CC(N)C(=O)N1CCCC1 (stereo not drawn) [H-Asn-pyrrolidine] | 4.92 | – | –
Br.CC(C)[C@H](NC(=O)[C@H](C)N)C(=O)N1CCC[C@H]1C(=O)COC(=O)c1ccccc1 [Ala-Val-Pro-benzoyl-methyl ketone, H-Ala-Val-Pro-CH2O—C(O)Ph.HBr] | – | – | In vivo DPIV-inhibition at tmax, i.v. (%) (plasma DPIV activity): 97%; In vivo DPIV-inhibition at tmax, p.o. (%) (plasma DPIV activity): 76%
CCC(C)C(N)C(=O)N1CCSC1 (stereo not drawn) [H-Ile-Thia] | – | – | pEC50 (PepT1 [2]): 3.01; Imax, inward currents generated by the transport (PepT1 [3]): 25 ± 8 nA
H-Glu(PEG)-Thia | 5.51 | – | pEC50 (PepT1 [2]; read-out: EC50, concentration inhibiting binding of 3H-D-Phe-Ala to PepT1-expressing P. pastoris cells by 50%): < 2.00
Val-Pro-benzoyl methyl ketone | 9.27 | 7.75 | –
CC[C@H](C)[C@H](NC(=O)[C@@H]1CCCN1C(=O)[C@@H](N)Cc1ccc(OP(=O)(O)O)cc1)C(=O)O [Tyr(P)-Pro-Ile] (H-[pY]-Pro-Ile-OH; N-terminus and C-terminus assumed) | – | 2.70 | In vivo DPIV-inhibition at tmax, p.o. (%) (plasma DPIV activity): no inhibition
N[C@@H](CCC(=O)NCC(=O)NCC(=O)NCC(=O)O)C(=O)N1CCSC1 [H-Glu(Gly3)-Thia] | 7.72 | – | pEC50 (PepT1 [2]): 2.07
NC(CC(=O)O)C(=O)N1CCCC1 (stereo not drawn) [H-Asp-pyrrolidine] | 7.85 | – | –
NC(=O)CC(N)C(=O)N1CCSC1 (stereo not drawn) [H-Asn-thiazolidine] | 5.46 | – | –
N[C@@H](CCC(=O)NCC(=O)NCC(=O)NCC(=O)NCC(=O)NCC(=O)O)C(=O)N1CCSC1 [H-Glu(Gly5)-Thia] | 7.00 | – | pEC50 (PepT1 [2]): < 2.00
CC[C@H](C)[C@H](N)C(=O)N1C[C@H](O)C[C@H]1C(=O)N[C@H](C(=O)O)[C@@H](C)CC [Ile-Hyp-Ile] (H-Ile-[Hyp]-Ile-OH; N-terminus and C-terminus assumed) | – | 2.22 | –

The next lines start with results.

pKi [1] | pIC50 (purified porcine DPIV) | Molecule | also measured
4.25 | 3.53 | CCC(C)C(N)C(=O)C1CCCCC1 (stereo not drawn) [Ile-cyclohexyl ketone] | –
4.89 | – | NC(CC(=O)NO)C(=O)N1CCCC1 (stereo not drawn) [H-Asp(NHOH)-pyrrolidine] | –
5.46 | – | NC(Cc1c[nH]cn1)C(=O)N1CCCC1 (stereo not drawn) [H-His-pyrrolidine] | –
3.56 | 3.56 | CC(C)(C)C(N)C(=O)C1CCCCC1 (stereo not drawn) [t-butyl-Gly-cyclohexyl ketone] | –
5.74 | – | NC(Cc1c[nH]cn1)C(=O)N1CCSC1 (stereo not drawn) [H-His-thiazolidine] | –
– | 3.00 | CC[C@H](C)[C@H](NC(=O)[C@@H]1CCCN1C(=O)[C@@H]1Cc2ccccc2CN1)C(=O)O [Tic-Pro-Ile] (H-[Tic]-Pro-Ile-OH; N-terminus and C-terminus assumed) | –
5.06 | – | NC(CC(=O)NO)C(=O)N1CCSC1 (stereo not drawn) [H-Asp(NHOH)-thiazolidine] | –
– | 3.00 | Val-cyclohexyl ketone | –
7.43 | 6.86 | Val-Pro-benzothiazol methyl ketone | –
8.98 | 7.99 | Val-Pro-acyloxy methyl ketone | –
– | 4.42 | CCC(C)C(N)C(=O)C1CCCC1 (stereo not drawn) [Ile-cyclopentyl ketone, 1-cyclopentyl-3-methyl-1-oxo-2-pentanaminium chloride] | –
5.54 | – | NC(CC(=O)O)C(=O)N1CCSC1 (stereo not drawn) [H-Asp-thiazolidine] | –
7.32 | 6.24 | CC(=O)C1CCCN1C(=O)C(N)C(C)C (stereo not drawn) [Val-Pro-methyl ketone] | –
– | 4.17 | CC(C)[C@H](N)C(=O)N1CCC[C@H]1C(=O)N[C@H](C(=O)O)C(C)(C)C [Val-Pro-t-butyl-Gly] (H-Val-Pro-[Tle]-OH; N-terminus and C-terminus assumed) | –
5.55 | – | NC(CCC(=O)NO)C(=O)N1CCCC1 (stereo not drawn) [H-Glu(NHOH)-pyrrolidine] | –
6.57 | – | CC(C)C(N)C(=O)N1CCSC1 (stereo not drawn) [H-Val-thiazolidine] | –
5.77 | – | NC(CCC(=O)NO)C(=O)N1CCSC1 (stereo not drawn) [H-Glu(NHOH)-thiazolidine] | pEC50 (PepT1 [2]): 2.50; Imax, inward currents generated by the transport (PepT1 [3]): 42 ± 11 nA
